Measured values from paper PMC4557121, “TRB3 links insulin/IGF to tumour promotion by interacting with p62 and impeding autophagic/proteasomal degradations” (Nature Communications, 2015).
Where two headings read alike, the source gives them in different places. Each block holds one compound with its values, some of them ahead of it. Where a SMILES comes first, the peptide text is derived from it. Where no end group is shown, it is not given here. The star is where a group is joined. Cbz = O=C(OCc1ccccc1)*

How the values were obtained:
B16-F10 cells = test: B16-F10 tumour growth and metastasis in TRB3 knockdown KK-Ay mice given 3-MA or MG132; assay type: in vivo; conditions: KK-Ay/TRB3-KD mice, B16-F10 s.c. or i.v.; 3-MA 30 mg kg^−1 per day or MG132 2.5 mg kg^−1 twice a week i.p.; n=6 per group; Supplementary Fig. 4g,h
Experimental: Seven-week-old KK-Ay mice were i.p. injected with TRB3-shRNA lentiviral particles (2 × 10^5 plaque-forming unit) to generate KK-Ay/TRB3-KD mice; over 75% depletion of TRB3 in target tissues (lungs and liver) was considered as effectively knocking down. 3-MA (30 mg kg^−1 per day) or MG132 (2.5 mg kg^−1 twice a week) was i.p. injected to the KK-Ay/TRB3-KD mice, from day 9 after tumour inoculation to the time of being killed. The evaluation of tumour growth and metastasis was described in the section of ‘Mouse Models for Tumour Growth and Metastasis'.
control-shRNA. Data are the summarized fold changes of proteins (control-
shRNA/TRB3-shRNA1) (upper) and representative spots showing
differentially expressed EGFR (framed) (lower). Data are representative of 2
independent assays. (e) The xenograft tumours express higher pro-
metastasis and pro-EMT factors in KK-Ay mice than that in C57 BL/6 mice.
Data are representative immunoblots of 4 independent assays. (f) The liver
and lung tissues express higher pro-metastasis and pro-EMT factors in
DMBA-treated KK-Ay mice than that in DMBA-treated C57 BL/6. Data are
representative immunoblots of 4 independent assays. (g,h) Suppressing
autophagy or UPS reverses the antitumour effect of TRB3 knockdown. TRB3
knockdown KK-Ay mice were s.c. injected with B16-F10 cells ([…]) or i.v. […]
Statistical significance was determined by Student’s t-test; *P<0.05, **P<0.01,

[1] = tested on: TRB3-silenced HepG2 cells; test: Protein turnover assay in TRB3-silenced HepG2 cells with degradation inhibitors; assay type: cell-based, human; conditions: inhibitor 12 h, immunoblot, Fig. 3f
Experimental: Figure 3 Enhanced TRB3 compromises selective autophagy and clearance of UPS. (a) BEAS-2B cells were infected with TRB3-Myc-adenovirus expressing Myc-Tagged TRB3 with an independently expressing GFP. GFP-adenovirus was used as control. Indicated molecules were detected by immunoblotting. Data are representatives of four independent assays. (b) TRB3-silenced cells were treated with IGF-1 (100 nM) for 12 h and indicated proteins were detected by immunoblotting. Data are representatives of four independent assays. (c) Control or TRB3-silenced HepG2 cells were infected with adenovirus with mRFP-GFP-LC3-PE. After 24 h, the cells were treated with IGF-1 (100 nM) for 12 h and the flux rate of autophagy was detected with Live Cell Imaging Microscopy. Data are schematic drawing of the autophagy process (upper) and microscopy images showing red-coloured autophagolysosomes or red/green double-coloured autophagosomes (lower). Scale bar, 10 μm. See also Supplementary Movies 1–6. (d) Silencing TRB3 increased the number of autophagosomes (Avi) and autolysosomes (Avd) in HepG2 cells treated with or without IGF-1 (100 nM). Data are representative images of TEMs of three independent assays. Single arrows denote Avi; double arrows indicate Avd. Scale bar, 500 nm. The ratio of autophagic vacuole area to the cytoplasmic area was determined by morphometric analysis. Data are means±s.e.m. (e) TRB3-silenced cells were treated with IGF-1 (100 nM) for 12 h. Expression of indicated proteins was detected by immunoblotting. Data are representatives of four independent assays. (f) TRB3-silenced HepG2 cells were treated with bafilomycin (left) or MG132 (right) for 12 h. Indicated proteins were detected by immunoblotting. […] The cells were treated with or without IGF-1 for 12 h and the expression of Ub^G76V-GFP was immunoblotted with anti-GFP antibody (Ab; left) or detected with flow cytometry (right). […] The proliferative and invasive capacities of cells were evaluated with Edu (h) and transwell assays (i). Statistical significance was determined with one-way analysis of variance (ANOVA); *P<0.05; **P<0.01; ***P<0.001. […]

TRB3 = target: T1, TRB3 (Homo sapiens, UniProt Q96RU7); test: Surface plasmon resonance binding of peptides to immobilized TRB3
T1 sequence (Q96RU7 1-358): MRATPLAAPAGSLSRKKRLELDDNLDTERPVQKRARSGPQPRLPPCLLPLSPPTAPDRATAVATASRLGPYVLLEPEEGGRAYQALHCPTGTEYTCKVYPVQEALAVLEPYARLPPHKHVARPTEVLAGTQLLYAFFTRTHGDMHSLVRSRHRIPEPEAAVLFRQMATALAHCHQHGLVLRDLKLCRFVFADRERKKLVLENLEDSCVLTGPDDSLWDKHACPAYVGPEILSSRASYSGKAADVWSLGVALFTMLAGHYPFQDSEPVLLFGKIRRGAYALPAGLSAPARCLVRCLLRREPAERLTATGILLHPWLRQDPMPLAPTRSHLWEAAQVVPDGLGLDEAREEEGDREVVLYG
Experimental: Binding kinetics between TRB3 and control, P2, P4, P6, P7, P8, P9, P11, A1, A2 or A3 were measured by a surface plasmon resonance assay using BIAcore T200 instrument (GE Healthcare, Pittsburgh, USA)[53]. The dissociation constant (KD) was calculated according to the BIA-evaluation software.

p62 = test: Cycloheximide chase of p62 degradation in HepG2 cells; assay type: cell-based, human; conditions: CHX 10 μg ml^−1 after insulin/IGF-1 stimulation, 8.5 h without stimulation, three independent assays, Fig. 4b
Experimental: Figure 4 TRB3 mediates insulin/IGF-induced p62 accumulation. (a) HepG2 cells were treated with indicated stimulators for 12 h. The mRNAs were determined with RT–PCR using specific primer sets. Data are means±s.e.m of three independent assays. (b) HepG2 cells were incubated with cycloheximide (CHX) (10 μg ml^−1) for indicated time points after insulin/IGF-1 stimulation. Indicated proteins were detected with immunoblotting. Data are means±s.e.m of three independent assays. (c) Control or TRB3-silenced cells were incubated with CHX (10 μg ml^−1) for indicated time points after IGF-1 stimulation. Cell lysates were isolated for immunoblotting. Data are means±s.e.m of three independent assays. (d) HepG2 cells expressing p62- or control-siRNA were co-transfected with Ub^G76V-GFP. The cells were treated with IGF-1 for 12 h. The cell lysates were isolated for immunoblotting. Data are representative of immunoblots of three independent assays. (e) Cells expressing control-shRNA or TRB3-shRNAs were transfected with Ub^G76V-GFP plasmid plus or minus with p62-DDK-expressing plasmid. The lysates were isolated for immunoblotting. […] After 24 h, the cells were treated with IGF-1 for 12 h, and the flux rate of autophagy was detected with Live Cell Imaging Microscopy. […] Indicated proteins were evaluated with immunoblotting. […] Statistical significance was determined with Student's t-test; *P<0.05. […]

[2] = SPR, BIAcore T200, peptide passed over TRB3 immobilized on CM5 sensor chip, alanine scan of A2, Fig. 6f, read-out: KD

Compound: Cn1cnc(N)c2ncnc1-2 [3-MA]
effect on antitumour actions of TRB3 deficiency (B16-F10 cells): overturn the antitumour actions of TRB3 deficiency

Compound: CC(C)C[C@@H](C=O)NC(=O)[C@H](CC(C)C)NC(=O)[C@H](CC(C)C)NC(=O)OCc1ccccc1 [MG132] (Cbz-Leu-Leu-Leu-aldehyde)
effect on antitumour actions of TRB3 deficiency (B16-F10 cells): overturn the antitumour actions of TRB3 deficiency
turnover of COX2, Twist and MMP-2 [1]: inhibited

Compound: CO/C1=C\C(C)=C\[C@@H](C)[C@@H](O)[C@@H](C)C/C(C)=C/C=C/[C@H](OC)[C@@H]([C@@H](C)[C@@H](O)[C@H](C)[C@@]2(O)C[C@@H](O)[C@H](C)[C@@H](C(C)C)O2)OC1=O [bafilomycin]
turnover of COX2, Twist and MMP-2 [1]: not inhibited
turnover of LC3, EGFR, c-Myc, MMP1 and p62 [1]: inhibited

Compound: AGWLTRLLQTK [M1]
Kd (TRB3): 1640 nM

Compound: GAWLTRLLQTK [M2]
Kd (TRB3): 402 nM

Compound: GGALTRLLQTK [M3]
Kd (TRB3): 3590 nM

Compound: GGWATRLLQTK [M4]
Kd (TRB3): 4320 nM

Kd (TRB3; [2]): 110 nM
Compound: GGWLARLLQTK [M5]

Kd (TRB3; [2]): 0.142 nM
Compound: GGWLTALLQTK [M6]

Kd (TRB3; [2]): 11800 nM
Compound: GGWLTRALQTK [M7]

Compound: GGWLTRLLATK [M9]
Kd (TRB3): 35600 nM

Compound: GGWLTRLLQAK [M10]
Kd (TRB3): 381 nM

Compound: GGWLTRLLQTA [M11]
Kd (TRB3): 73.1 nM

Compound: IGF-1
half-life of p62 degradation (p62): 24 h

Compound: insulin
half-life of p62 degradation (p62): 24 h
